Biological target: T1, wild-type hTRPM3_1325 (Homo sapiens, UniProt Q9HCF6)
T1 construct: expressed in transfected cells; host or cells: Xenopus laevis oocytes (cRNA injection)
T1 sequence (Q9HCF6 1-1325 isoform Q9HCF6-10): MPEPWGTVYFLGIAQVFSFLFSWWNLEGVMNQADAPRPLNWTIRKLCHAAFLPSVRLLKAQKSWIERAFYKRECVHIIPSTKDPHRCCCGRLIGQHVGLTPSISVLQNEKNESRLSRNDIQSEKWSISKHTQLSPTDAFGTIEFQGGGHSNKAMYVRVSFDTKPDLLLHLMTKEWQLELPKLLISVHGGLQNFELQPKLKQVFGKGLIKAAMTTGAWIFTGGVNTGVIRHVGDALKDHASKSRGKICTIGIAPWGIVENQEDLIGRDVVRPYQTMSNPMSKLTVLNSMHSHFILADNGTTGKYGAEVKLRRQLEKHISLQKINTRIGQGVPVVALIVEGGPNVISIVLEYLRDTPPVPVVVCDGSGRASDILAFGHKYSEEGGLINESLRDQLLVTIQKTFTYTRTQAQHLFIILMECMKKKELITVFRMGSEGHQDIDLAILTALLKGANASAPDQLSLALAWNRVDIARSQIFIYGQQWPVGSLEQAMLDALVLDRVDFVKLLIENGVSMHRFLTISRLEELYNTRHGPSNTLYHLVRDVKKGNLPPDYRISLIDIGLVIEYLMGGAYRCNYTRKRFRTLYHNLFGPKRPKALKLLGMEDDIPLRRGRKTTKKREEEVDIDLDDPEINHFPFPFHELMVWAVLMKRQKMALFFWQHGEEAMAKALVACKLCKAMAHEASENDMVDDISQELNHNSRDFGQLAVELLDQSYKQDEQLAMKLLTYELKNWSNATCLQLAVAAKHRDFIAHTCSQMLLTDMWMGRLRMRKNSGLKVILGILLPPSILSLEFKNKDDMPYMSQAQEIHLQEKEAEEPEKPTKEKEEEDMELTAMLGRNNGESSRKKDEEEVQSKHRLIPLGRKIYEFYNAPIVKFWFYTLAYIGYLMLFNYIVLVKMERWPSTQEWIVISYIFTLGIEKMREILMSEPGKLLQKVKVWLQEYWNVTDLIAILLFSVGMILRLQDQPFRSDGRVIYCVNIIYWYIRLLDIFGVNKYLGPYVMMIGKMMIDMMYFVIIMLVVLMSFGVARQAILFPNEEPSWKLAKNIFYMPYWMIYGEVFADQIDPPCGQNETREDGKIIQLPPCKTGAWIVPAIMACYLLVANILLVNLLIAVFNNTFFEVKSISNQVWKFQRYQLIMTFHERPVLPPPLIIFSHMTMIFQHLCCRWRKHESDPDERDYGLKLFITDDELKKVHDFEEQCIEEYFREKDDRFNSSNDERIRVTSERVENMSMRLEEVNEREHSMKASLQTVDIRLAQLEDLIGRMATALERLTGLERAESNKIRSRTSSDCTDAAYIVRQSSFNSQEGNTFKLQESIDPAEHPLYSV
Test: Two electrode voltage clamp in Xenopus oocytes, wild type channel
Assay type: cell-based
Details: wild type TRPM3, 50 μM, room temperature (20–22°C)
Method: Xenopus laevis oocytes were prepared as described earlier ([Badheka et al., 2015]). All animal procedures were approved by the Institutional Animal Care and Use Committee at Rutgers New Jersey Medical School. In brief, frogs were anesthetized in 0.25% ethyl 3-aminobenzoate methanesulfonate solution (MS222; Sigma-Aldrich); bags of ovaries were removed surgically from the anesthetized frogs. Individual oocytes were obtained by overnight digestion at 16°C in 0.2–0.3 mg/ml type 1A collagenase (Sigma-Aldrich), dissolved in a solution containing 82.5 mM NaCl, 2 mM KCl, 1 mM MgCl2, and […] HEPES, pH 7.4 (OR2 solution). The next day the collagenase containing solution was discarded and the oocytes were washed multiple times with OR2 solution. […]
Two electrode voltage clamp experiments were performed as described ([Badheka et al., 2015]). In brief, oocytes were placed in extracellular solution (97 mM NaCl, 2 mM KCl, 1 mM MgCl2, and […] HEPES, pH 7.4), and currents were recorded with thin-wall inner filament– containing glass pipettes (World Precision Instruments) filled with 3 M KCl in 1% agarose. Currents were measured with a ramp protocol from −100 to 100 mV once every 0.5 s with a GeneClamp 500B amplifier and analyzed with the pClamp 9.0 software (Molecular Devices). […]

CCC1(c2ccccc2)C(=O)NCNC1=O [primidone]
Inhibition of basal current: small reduction
